Results reported in patent US10758634B2, “Compounds, compositions and associated methods using zirconium-89 in immuno-positron emission tomography” (Wake Forest University, priority 2016, dated 2020).
“Also recorded” adds a separate entry of the source.

Legend:
[1] = DTPA challenge, in vitro stability (radio-TLC); format: physicochemical; conditions: 50 mM DTPA, n = 3
Protocol: (§1) Lipophilicity (Log P) will be determined using the water:octanol method. Briefly, the water:octanol (1:1) solution containing the ^89Zr-complex (0.19 MBq) will be vortexed (5 min) and then centrifuged (5 minutes at 17,000 rpm). After separation, aliquots from each layer will be counted separately in the gamma counter, and Log P will be calculated as the ratio of counts in the octanol fraction to counts in the aqueous fraction. In vitro stability will be determined by incubating each ^89Zr complex at 37° C. in the presence 500 μL of DTPA (50 mM, pH 7 or pH 5), 500 μL of EDTA (50 mM, pH 7 or pH 5), or 500 μL of human serum (at 37° C.). The different pH environments will be meant to reflect the pH environments in normal blood (pH 7) or the lysosome (pH 5). Samples will be analyzed over the course of 7 days using radio-TLC and radio-HPLC.

[2] = EDTA challenge, in vitro stability (radio-TLC); format: physicochemical; conditions: for order of ^89Zr complex stability: based upon EDTA challenge studies
Protocol: as §1, with “In vitro stability will be determined by incubating each ^89Zr complex at 37° C. in the presence 500 μL of DTPA (50 mM, pH 7 or pH 5), 500 μL of EDTA (50 mM, pH 7 or pH 5), or 500 μL of human serum (at 37° C.).” left out
Based upon our EDTA challenge studies, the order of ^89Zr complex stability can be described as ^89Zr-DOTA>>^89Zr-DOTP>^89Zr-DOTAM>^89Zr-DFO.

[3] = Small animal PET imaging in normal mice; format: in vivo; conditions: for radioactivity at 4 h (static PET): 4 h after injection; for radioactivity at 24 h (static PET): 24 h after injection; for excretion route (PET): mouse, in vivo
Protocol: Small animal PET/CT imaging will be conducted on the ^89Zr-AMCs identified from studies described above and in vivo biodistribution studies. NIH Swiss mice (n=6/cohort) will be injected with either ^89ZrCl4, ^89Zr-DFO (11 MBq (300 μCi)) or ^89Zr-AMC and imaged using 1 h dynamic scanning followed by static imaging at 4, 24, 48 h and 72 h p.i. […] All PET images will be co-registered with CT, to (a) allow more accurate selection of regions of interest to correspond with anatomy described by CT, and (b) reduce inaccuracies that result from partial volume effects, which can result in falsely low standard uptake values (SUVs) during data analysis. SUVs and the corresponding % ID/g will be determined from the co-registered PET/CT images using the formula SUV=[nCi/cc×animal weight/injected dose], and correlated to the biodistribution data.
Normal mice were injected with ^89Zr-DFO and ^89Zr-DOTA and dynamic PET imaging done from 0-60 minutes, followed by static imaging at 2, 4, and 24 hours after injection.

[4] = Acute in vivo biodistribution of ^89Zr-complexes in normal mice; parameters: species or system NIH Swiss mice; conditions: for radioactivity retention in bone tissue over time: up to 72 h
Protocol: NIH Swiss mice (n=6/time point) will be injected with the ^89Zr-AMC (0.56 MBq (15 μCi)), and then sacrificed at 1, 4, 24, 48 and 72 h post-injection (p.i.). Organs of interest will be removed, weighed and counted on a gamma counter. Percent injected dose per gram (% ID/g) and percent injected dose per organ (% ID/organ) will be counted and compared to a weighed, counted standard for all groups.
The in vivo stability of ^89Zr-DOTA, ^89Zr-DOTP, and ^89Zr-DOTAM were then evaluated in acute biodistribution studies using female NIH Swiss mice (6-8 wk old, n=6). […] While surfactant was used in the injection formulation for biodistribution studies, it is hypothesized that once in the blood stream, ^89Zr-DOTAM aggregates with serum proteins, which are deposited in these tissues during circulation.

[5] = Human serum stability (radio-TLC/ITLC, size exclusion chromatography); format: in vitro ADME; conditions: for In vitro stability (Radio-TLC): Serum, n = 3; for degradation in human serum (radio-ITLC): human serum proteins, 7 days at 37° C.
Protocol: as §1
To further characterize the stability of Zr-tetraazamacrocycle complexes and preliminarily assess their suitability for in vivo applications, each radiometal complex was incubated with human serum proteins for 7 days at 37° C.
Any ^89Zr transchelated to serum proteins is expected to be complexed by EDTA and move to the solvent front in this system.

[6] = Metal competition studies (demetallation by excess metal salts); format: physicochemical; conditions: for complex remaining intact: 7 days
Protocol: Tetraazamacrocycles can chelate numerous, biologically relevant metal cations, and this property can potentially create a second mechanism for ^89Zr^4+ dissociation from its chelator in vivo. To assess the ability of the Zr-complexes to resist demetallation by another metal cation, metal competition studies were performed, in which the radiometal complex was mixed with an excess concentration of metal salts.

[7] = EDTA challenge, in vitro stability (radio-TLC); format: physicochemical; conditions: 50 mM EDTA, pH 5.5, n = 3
[8] = In vitro solution behaviour (aggregation/precipitation); format: physicochemical; conditions: unless a low concentration of surfactant was included
[9] = Lipophilicity (log P), water/octanol partition method; format: physicochemical
Protocol: as §1

SMILES	In vitro stability (Radio-TLC) ([1]; pH 5.5, 1 h)	In vitro stability (Radio-TLC) ([1]; pH 5.5, 7 d)	In vitro stability (Radio-TLC) ([1]; pH 7.0, 1 h)	In vitro stability (Radio-TLC) ([1]; pH 7.0, 7 d)	order of ^89Zr complex stability [2]	radioactivity at 4 h (static PET) [3]	radioactivity at 24 h (static PET) [3]	excretion route (PET) [3]	blood clearance ([4]; normal mice, n=6/group)	radioactivity retention in bone tissue over time [4]	In vitro stability (Radio-TLC) ([5]; 1 h)	In vitro stability (Radio-TLC) ([5]; 7 d)	degradation in human serum (radio-ITLC) [5]	In vitro stability (Radio-TLC) ([7]; 1 h)	In vitro stability (Radio-TLC) ([7]; 7 d)	Lipophilicity (log P) [9]	also measured
CC(=O)N([O-])CCCCCNC(=O)CCC(=O)N([O-])CCCCCNC(=O)CCC(=O)N([O-])CCCCCN.[89Zr+4] [^89Zr-DFO, reference compound]	7.3 ± 0.8%	0%	90.3 ± 0.5%	40.6 ± 0.5%	^89Zr-DOTA>>^89Zr-DOTP>^89Zr-DOTAM>^89Zr-DFO	more radioactivity accumulated in the kidneys	still visible in static images	excreted renally	rapid blood clearance	increases over time	100%	99.3 ± 0.1%	no noticeable degradation	6.3 ± 0.8%	0%		loss of metal ions in EDTA challenge ([2]; 1000-fold excess of EDTA, after 3 h): completely lost metal ions; complex remaining intact ([6]; challenged with Fe^3+): 33.9%; complex remaining intact ([6]; challenged with Ga^3+): 72.6%
NC(=O)CN1CCN(CC(N)=O)CCN(CC(N)=O)CCN(CC(N)=O)CC1.[89Zr+4] [^89Zr-DOTAM]					^89Zr-DOTA>>^89Zr-DOTP>^89Zr-DOTAM>^89Zr-DFO								no noticeable degradation				behaviour in solution in vitro [8]: aggregated and precipitated out of solution; radioactivity retained in liver and spleen ([4]; female NIH Swiss mice, not excreted over 72 hour time course): retained elevated levels of radioactivity in liver and spleen tissues
O=C([O-])CN1CCN(CC(=O)[O-])CCN(CC(=O)[O-])CCN(CC(=O)[O-])CC1.[89Zr+4] [^89Zr-DOTA]	100%	100%	100%	100%	^89Zr-DOTA>>^89Zr-DOTP>^89Zr-DOTAM>^89Zr-DFO	nearly all the radioactivity was excreted	barely above background levels	excreted renally	rapid blood clearance	remained low with no statistically significant changes at any time point	100%	100%	no noticeable degradation	100%	100%	most hydrophilic characteristics	transchelation in EDTA challenge ([2]; 100-, 500-, and 1000-fold excess of EDTA at pH 5 or pH 7 over 7 days): did not experience transchelation; radioactivity in kidney and bone compared to ^89Zr-DFO (PET) ([3]; dynamic PET 0-60 minutes): much lower; reduction in radioactivity accumulation in the liver, kidney, and bone ([4]; 72 hours, pilot data): ≥ 10%; radioactivity retained in blood, liver, kidney and bone compared to ^89Zr-DOTP ([4]; intravenous injection): retained significantly less radioactivity in their blood, liver, kidney and bone tissue; radioactivity retained in liver, kidney and bone compared to ^89Zr-DFO ([4]; normal mice, n=6/group): lower radioactivity retention in liver, kidney, and bone tissues; also recorded: retained less radioactivity in the liver, kidney and bone; demetallation in metal competition ([6]; excess concentration of metal salts, 7-day experiment): No demetallation
O=P([O-])(O)CN1CCN(CP(=O)([O-])O)CCN(CP(=O)([O-])O)CCN(CP(=O)([O-])O)CC1.[89Zr+4] [^89Zr-DOTP]					^89Zr-DOTA>>^89Zr-DOTP>^89Zr-DOTAM>^89Zr-DFO								no noticeable degradation			most hydrophilic characteristics	bone retention compared to ^89Zr-DFO ([4]; n=6/group): Bone retention is higher; radioactivity retained in liver and kidney compared to ^89Zr-DFO ([4]; n=6/group): retained less radioactivity in the liver and kidney
[Cl][89Zr]([Cl])([Cl])[Cl] [^89ZrCl4, reference compound]																	association with serum proteins (size exclusion chromatography) ([5]; unchelated ^89Zr control): found to be associated with serum proteins
